In PMC10616469, “Pharmacokinetics and tissue distribution of four major bioactive components of Cynanchum auriculatum extract: a UPLC–MS/MS study in normal and functional dyspepsia rats” (Frontiers in Pharmacology, 2023):
Like-named read-outs stand apart in the source and are kept apart here.

Legend:
[1] = PK study: plasma pharmacokinetics after oral administration of CA extract in normal and FD rats (UPLC-MS/MS); assay type: in vivo; conditions: Sprague-Dawley, rat, oral CA extract (0.10 g/mL solution, 10 mL/kg); for AUC(0-inf) / AUC(0-t) / CL/F / Cmax / half-life: n = 6; for Tmax: n = 6, read-out: Tmax; for Vd/F: n = 6, read-out: Vz/F
Method: For PK experiments, an appropriate amount of the CA extract was weighed to prepare a 0.10 g/mL solution using physiological saline. Briefly, 12 SD rats were randomly assigned to normal and FD groups and were orally administered the prepared CA sample (10 mL/kg body weight). For assessment, 0.3 mL of blood was collected into heparinized tubes via the caudal vein before dosing and at 2, 5, 10, 15, 20, 30, and 45 min, and 1, 2, 4, 8, 12, 24, and 48 h after administration. Blood samples were then immediately centrifuged at 4,500 rpm for 15 min, and the obtained plasma samples were stored at −20°C until determination.
The PK parameters were analyzed using the non–compartment analysis using the WinNonLin 8.2 software (Phoenix, United States). All the data were expressed as mean ± standard deviation (SD). The normal and FD groups were compared using independent samples t–test in SPSS 22.0. Results with p values < 0.05 were considered statistically significant.

[2] = Stability of the four compounds in plasma samples (QC samples); conditions: n = 5
Method: In a 1.5 mL EP tube, 100 μL of plasma sample was mixed with 10 µL 1% formic acid–water, 10 μL IS (0.2011 μg/mL), and 400 μL acetonitrile. The mixture was then vortexed for 5 min, followed by sonication for 10 min at 40 kHz and centrifugation at 14,000 rpm for 10 min. The supernatant obtained was transferred to another tube and evaporated to dryness under a nitrogen vacuum at 37°C. The residue obtained was reconstituted with 150 μL of the initial mobile phase, and the centrifugation process was repeated. The supernatant thus obtained was then used for further analysis.
Similarly, QC samples of three concentrations (low, medium, and high) were prepared.
The specificity of the method was evaluated by comparing the retention times of analytes and IS in the blank matrix, blank matrix spiked with the four analytes and IS, and the samples after oral administration of CA extract. Calibration curves were constructed by comparing the ratio of peak areas of the four analytes to that of IS versus the concentration of the four analytes. Calibration curves were fitted via linear weighted (1/X ^ 2 ) least–squares regression. The intra–and inter–day precision and accuracy were estimated by analyzing QC samples at different concentrations on the same day and three consecutive validation days, respectively. The extraction recovery was evaluated by determining the peak area of analytes in QC samples compared with that in extracted matrix samples. The relative standard deviation of the extraction recovery of analytes at each level was retained at ≤20.0%. The following parameters of stability were assessed: short–term stability (24 h at room temperature), processed sample stability (24 h at 4°C), freeze–thaw stability (3 cycles), and auto–sampler stability (6 h at room temperature). QC samples of different concentrations were used for stability analysis.

[3] = Tissue distribution study after oral administration of CA extract in normal and FD rats
Method: UPLC–MS/MS analysis was conducted using the ACQUITY UPLC system (Waters Corp., Milford, MA, United States) equipped with a Xevo–TQ mass spectrometer (Waters Corp., Milford, MA, United States) with an electrospray ionization (ESI) interface and triple quadrupole mass analyzer.
The ACQUITY UPLC® BEH C18 column (2.1 mm × 50 mm, 1.7 μm, Waters, United States) was used for separation and was maintained at 40°C. The mobile phase consisted of 0.1% formic acid in water (A) and 0.1% formic acid–acetonitrile (B) for PK study and 0.2% formic acid in water (A) and 0.2% formic acid–acetonitrile (B) for tissue distribution study. The mobile phase was eluted as a gradient, as follows: 0–0.5 min, 10% B; 0.5–3.0 min, 15% B; 3.0–3.2 min, 25% B; 3.2–4.0 min, 30% B; 4.0–4.5 min, 32% B; 4.5–6.0 min, 90% B; and 6.0 min, 10% B. The flow rate was set at 0.35 mL/min and the injection volume was 2 μL for the PK study and 1 μL for the tissue distribution study.
The four active components of CA were quantified using multiple reaction monitoring under negative ion mode. The following m/z transitions were chosen for quantification: baishouwu benzophenone 301.00→283.00, deacylmetaplexigenin 379.15→361.20, qingyangshengenin 499.20→137.00, syringic acid 197.20→181.95, and puerarin (internal standard, IS) 415.10→267.05. The collision energy was 15, 15, 35, 15, and 35 V, respectively ([Sun et al., 2022]). ESI mode was operated under the following conditions: capillary voltage, 1 kV; desolvation gas (N2), 1000 L/h; collision gas (Ar2), 150 L/h; desolvation temperature, 400°C; and source temperature, 120°C.
Additionally, stomach and small intestinal tissues were diluted three times to obtain a tissue homogenate. Then, 300 μL of this tissue homogenate was mixed with 30 μL 1% formic acid-water, 20 μL IS, and 1.2 mL acetonitrile. The mixture was then vortexed for 5 min, sonicated for 10 min, and then stored at −20°C for 30 min. Subsequently, the mixture was centrifuged at 14,000 rpm for 10 min. The supernatant obtained was then transferred to another tube and evaporated to dryness at 37°C under nitrogen. The dried residue was reconstituted with 200 μL of the 50% methanol–water, and the centrifugation process was repeated. The obtained supernatant was then used for further analysis.
SD rats were randomly divided into normal and FD groups (n = 30 each) and orally administered 10 mL/kg of CA extract solution. The rats were sacrificed at 10, 30 min, 1, 2, and 4 h after administration (6 rats per time point). Subsequently, their heart, liver, spleen, lung, kidney, brain, small intestine, and stomach were removed. The tissue samples were then washed in saline solution and wiped with filter paper. Subsequently, all tissues were stored at −80°C until analysis.

[4] = high QC (nominal 1666.00 / 3172.53 / 569.17 / 206.21 ng·mL^-1)
[5] = low QC (nominal 52.06 / 49.57 / 8.89 / 1.61 ng·mL^-1)
[6] = medium QC (nominal 208.25 / 396.57 / 71.13 / 25.78 ng·mL^-1)

## COc1cc(C(=O)O)cc(OC)c1O [Syringic acid]
[1]; FD group rats
  AUC(0-inf): 1170 ± 357 ng·h/mL
  AUC(0-t): 498 ± 109 ng·h/mL
  CL/F: 1.83 mL/min/kg
  Cmax: 67.4 ± 3 ng/mL
  half-life: 37.7 ± 12.6 h
  Tmax: 0.25 ± 0.04 h
  Vd/F: 5.49 ± 0.69 L/kg
[1]; Normal group rats
  AUC(0-inf): 1150 ± 153 ng·h/mL
  AUC(0-t): 523 ± 54.3 ng·h/mL
  CL/F: 1.67 mL/min/kg
  Cmax: 72.2 ± 6.74 ng/mL
  half-life: 34.5 ± 6.73 h
  Tmax: 0.24 ± 0.03 h
  Vd/F: 5.07 ± 0.74 L/kg
[2]; [4]
  Measured concentration, 4°C for 24 h: 185.91 ± 1.51 ng/mL
  Measured concentration, Room temperature for 24 h: 196.89 ± 6.85 ng/mL
  Measured concentration, Three freeze-thaw cycles: 198.43 ± 6.85 ng/mL
[2]; [5]
  Measured concentration, 4°C for 24 h: 1.47 ± 0.10 ng/mL
  Measured concentration, Three freeze-thaw cycles: 1.42 ± 0.18 ng/mL
[2]; [6]
  Measured concentration, 4°C for 24 h: 22.75 ± 1.62 ng/mL
  Measured concentration, Room temperature for 24 h: 23.14 ± 1.80 ng/mL
  Measured concentration, Three freeze-thaw cycles: 23.32 ± 1.20 ng/mL
[3]; rat brain
  detection in the brain: not detected
[3]; rat tissues
  time after dosing at which eliminated in all tissues: 1 h
[3]; rats
  tissue with higher distribution: stomach
